In paper PMC6249113 (ACS chemical neuroscience, 2018):

How the values were obtained:
GluN1/2A NMDARs = GluN1/2A NMDARs (Rattus norvegicus, UniProt P35439+Q00959); assay type: cell-based; conditions: 10 μM compound; 100 μM NMDA plus 10 μM glycine; voltage pulse to +60 mV
GluN1/2A receptors = GluN1/2A receptors (Rattus norvegicus, UniProt P35439+Q00959); assay type: cell-based; conditions: for δ, fraction of the total transmembrane voltage field felt by the blocker at its binding site: calculated from V0 by Equation 4; for Hill coefficient (nH): tsA201 cells, GluN1/2A, 1 mM glutamate, −65 mV, fit of Equation 2; for V0, change in voltage that results in an e-fold change in the IC50: roughly twice the IC50 of each drug (3 μM 5, 5 μM 7, 2 μM 8, 1 μM 11), 9 voltages −105 to +55 mV, fit of Equation 3
Chain of GluN1/2A receptors (Q00959 23-1464, other chains not shown): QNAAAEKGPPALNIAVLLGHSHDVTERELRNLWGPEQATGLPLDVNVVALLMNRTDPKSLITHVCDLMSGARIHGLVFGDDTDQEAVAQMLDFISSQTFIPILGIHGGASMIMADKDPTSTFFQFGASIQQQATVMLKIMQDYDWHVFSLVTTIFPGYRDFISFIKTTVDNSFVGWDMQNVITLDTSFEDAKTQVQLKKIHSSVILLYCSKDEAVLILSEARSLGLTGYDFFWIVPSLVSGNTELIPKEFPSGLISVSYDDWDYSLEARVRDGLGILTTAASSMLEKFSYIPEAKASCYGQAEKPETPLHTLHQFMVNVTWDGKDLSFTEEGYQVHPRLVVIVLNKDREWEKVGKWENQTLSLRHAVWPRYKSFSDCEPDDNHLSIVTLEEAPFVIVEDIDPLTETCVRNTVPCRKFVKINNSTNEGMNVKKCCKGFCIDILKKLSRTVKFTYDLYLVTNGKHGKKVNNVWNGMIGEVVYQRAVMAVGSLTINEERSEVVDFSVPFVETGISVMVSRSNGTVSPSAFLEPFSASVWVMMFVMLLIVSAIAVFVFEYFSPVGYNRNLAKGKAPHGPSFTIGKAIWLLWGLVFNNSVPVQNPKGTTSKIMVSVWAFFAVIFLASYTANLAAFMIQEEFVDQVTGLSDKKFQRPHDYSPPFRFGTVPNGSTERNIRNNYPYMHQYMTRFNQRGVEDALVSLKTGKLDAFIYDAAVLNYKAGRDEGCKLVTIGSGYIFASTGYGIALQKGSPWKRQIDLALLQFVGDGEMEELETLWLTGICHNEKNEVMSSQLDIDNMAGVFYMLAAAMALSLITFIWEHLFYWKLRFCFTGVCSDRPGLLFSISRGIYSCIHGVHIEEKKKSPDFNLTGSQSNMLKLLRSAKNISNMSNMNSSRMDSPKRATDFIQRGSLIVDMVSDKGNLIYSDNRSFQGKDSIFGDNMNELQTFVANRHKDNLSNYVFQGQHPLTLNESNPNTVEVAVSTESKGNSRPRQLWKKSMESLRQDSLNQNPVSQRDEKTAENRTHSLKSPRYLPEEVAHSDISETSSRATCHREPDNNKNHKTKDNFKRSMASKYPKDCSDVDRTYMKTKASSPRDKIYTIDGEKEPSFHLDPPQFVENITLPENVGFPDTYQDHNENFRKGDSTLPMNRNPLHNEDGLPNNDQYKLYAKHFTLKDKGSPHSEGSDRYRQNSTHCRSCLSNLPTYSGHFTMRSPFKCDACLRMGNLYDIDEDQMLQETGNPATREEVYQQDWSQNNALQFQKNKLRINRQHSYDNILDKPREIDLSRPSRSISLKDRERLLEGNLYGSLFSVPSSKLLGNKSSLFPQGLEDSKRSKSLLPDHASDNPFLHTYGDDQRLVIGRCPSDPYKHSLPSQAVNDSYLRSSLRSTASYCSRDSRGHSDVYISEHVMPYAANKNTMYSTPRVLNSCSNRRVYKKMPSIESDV

Chain of GluN1/2A NMDARs (Q00959 23-1464, other chains not shown): as above

SMILES | percentage block at +60 mV (GluN1/2A NMDARs) [%] | IC50 (GluN1/2A receptors) [nM] | δ, fraction of the total transmembrane voltage field felt by the blocker at its binding site (GluN1/2A receptors) | Hill coefficient (nH) (GluN1/2A receptors) | V0, change in voltage that results in an e-fold change in the IC50 (GluN1/2A receptors) [mV]
CC12CC3CC(C)(C1)CC(N)(C3)C2 [Compound 5, memantine, reference compound] | 8.1 ± 4.0 | 1840 ± 390 | 0.91 ± 0.08 | 1.07 ± 0.27 | –
CC12CC3CC1(C)C1(C)CC3(N)CC21C.Cl [Compound 7, (3,4,8,9-Tetramethyltetracydo[4.4.0.0^3,9.0^4,8]dec-1-yl)amme hydrochloride] | 2.4 ± 5.1 | – | 0.99 ± 0.05 | 0.98 ± 0.08 | 26.5 ± 1.8
CC12CC3CC1(C)C1(C)CC3(CN)CC21C.Cl [Compound 8, (3,4,8,9-Tetramethyltetracydo[4.4.0.0^3,9.0^4,8]dec-1-yl)methylamine hydrochloride] | 14.7 ± 4.5 | – | 0.87 ± 0.05 | 1.01 ± 0.11 | 29.9 ± 1.9
